Tests used:
[1] = test system: human primary hair follicles (melanocyte stem cells at the bulge area); test: Pigmentation assay on isolated human primary hair follicles in culture, H2O2 stress; type: cell-based; conditions: positive control, 3% H2O2
Text: A novel platform for assaying human primary hair follicles in culture was developed to profile anti-graying potentially active agents (see FIG. 1). Normal human scalp specimens were obtained from various surgeries or from donor and recipient scalp hair derived from plastic surgery. […] Intact human skin specimens were implanted in semi-solid agarose (2% agarose diluted with Williams' medium E (Gibco™) at 1:5 ratio). The hair follicle culture medium was based on Williams' medium E (Gibco™) supplemented with 2 mmol/L L-glutamine, hydrocortisone 10 ng/ml, insulin 10 μg/ml, penicillin 100 U/ml, streptomycin 100 μg/ml, and amphotericin B 25 μg/ml. To maximize the effects of the test formulations and to exclude the variability of delivery ability of the formulations through the epidermis, the test formulations were applied directly at the bulge area of the follicles using the method as follows: (1) tissue preparation and culture for 8-24 hrs. (2) Isolation of individual follicles (3) Vertically embedding in semisolid media (4) Treatment with test formulation/Positive control on the bulge area of the hair follicles (5) Incubation for 24 hrs. (6) 3% H2O2 treatment (7) Incubation for 2 hrs. (8) Repositioning in semisolid media (9) Z-stacking imaging & Analysis on day 1, 3, 7 after H2O2 treatment For the experiment, a total of 602 follicles from 9 different donors were utilized. […]

[2] = test system: melanocyte stem cells (MSCs) in the bulge areas of hair follicles of human scalp skin; test: Melanocyte stem cell damage and pigmentation assay, topical application on intact human skin specimens; type: cell-based; conditions: topical 24 hours, then 3% H2O2 24 hours; eight follicles per treatment
Method: Formulation A, placebo A, or the positive control (CPC) were topically applied to the human skin specimens for 24 hours. The specimens were next treated with 3% hydrogen peroxide (H2O2) for 24 hours at 37° C. and incubated in 5% CO2 to trigger the DNA-damage response. After 24 hours of hydrogen peroxide treatment, all portions of the hair follicles were isolated from stress treated human skin scalp. Upon isolation, the hair follicles were washed gently several times in Phosphate-buffered saline (PBS) and transferred intact into soft agar with fresh growth medium in a cell culture incubator at 37° C. and 5% CO2. Hair follicles were examined under bright field microscopy after completion of the hydrogen peroxide treatment daily from day 0 (completion of peroxide treatment) to day 7. Pigmented melanocyte stem cells (MSCs) found in the bulge areas of hair follicles were counted in the bright field view. Formulation A and Placebo A, and the positive control (CPC) were tested, and eight follicles were investigated from each treatment. Paired T-test was applied for data analysis. […] P-value of 0.05 was set as the threshold of statistical significance. […] Eight follicles were analyzed in each test set.

ROS in hair follicles = test: Reactive Oxygen Species (ROS) assay on individual follicles; type: cell-based, human; conditions: NAC pretreatment, ionizing radiation 4, 8 or 12 Gy or 3% H2O2; ROS labeling 2 hours after treatment; compared to IR or H2O2 alone
Method: A Reactive Oxygen Species (ROS) assay was used for individual follicle observation with 5-(and-6)-chloromethyl-2′,7′-dichlorodihydrofluorescein diacetate, acetyl ester (CM-H2DCFDA). CM-H2DCFDA is a chloromethyl derivative of […], 2′,7′-dichlorohydrofluorescein diacetate (H2DCFDA), and is useful as an indicator for general ROS in cells. ROS should be labeled after 2 hours and imaged in 20 minutes, and the protocol included dissection of the follicles first before H2O2 treatment. […] The ROS detection protocol was as follows: (1) tissue preparation and culture (2) Isolation of individual follicles (3) Vertically embedding in semisolid media (4) Antioxidant treatment (NAC) on the bulge area of the hair follicles (5) Incubation for […]. (6) Treatment with ionizing radiation (e.g., 8.0 Gray) or H2O2 (7) Incubation for 2 hrs. […] NAC was applied for 24 hours before the ionizing radiation or H2O2 treatment and then 2 hours after treatment, ROS labeling and imaging have been done. The ionizing radiation was administered at doses of 4 gy, 8 Gy, or 12 Gy. Topical administration of hydrogen peroxide was used at a dose of 3%. The ROS positive cells were counted and they were normalized to DAPI positive cells.

hair follicles = test: Pigmented cell counts after NAC treatment (FIG. 12); type: cell-based, human; conditions: statistical significance not evaluable

CC(=O)N[C@@H](CS)C(=O)O [NAC, N-acetyl-cysteine]
pigmentation prevention at the bulge area of the follicle [1]: effective on the pigmentation prevention with statistical significance | hydrogen peroxide-induced pigmentation [2]: suppressed | ROS generation (ROS positive cells normalized to DAPI positive cells) (ROS in hair follicles): decreased compared to IR or H2O2 treatment alone | pigmented cell counts after the NAC treatment (hair follicles): tendency showing decreased pigmented cell counts
